Three molecules from US7332479B2, “Extracellular NAD+ and cADPR as potent anti-inflammatory agents” (University of Pittsburgh - of the Commonwealth System of …, priority 2003, dated 2008) can be followed below.

Test [1] has as its system Caco-2 human enterocyte-like cells. In words: Paracellular permeability of Caco-2 monolayers, apical-to-basolateral clearance of FD4, cytomix. Type of test: cell-based. The protocol: Cell Culture. Caco-2 human enterocyte-like cells were routinely maintained at 37° C. in DMEM with 10% FBS, as described by Han et al. ^9 All cells were fed by changing the cell culture medium twice per week. For experiments, cells were grown on Transwell inserts (0.4 μm pore size; Corning Costar Corp., Cambridge, Mass.) and used 14-17 days post-confluence. […] Caco-2 monolayers growing on permeable supports were left untreated or exposed to cytomix for 24 or 48 h in the absence or presence of graded concentrations of NAD^+ or adenosine. Paracellular permeability was determined by measuring the apical-to-basolateral flux of FD4. Epithelial permeability was unaffected when monolayers were incubated with NAD^+ alone. Exposing Caco-2 cells to cytomix increased the clearance of FD4 across the monolayers (FIG. 1A). Addition of NAD^+ ameliorated cytomix-induced epithelial hyperpermeability in a concentration-dependent manner. […] NAD^+ is structurally related to a nucleoside, adenosine, that is known to exert anti-inflammatory effects by binding to certain purinergic receptors;^24 accordingly, the possibility that activation of a receptor for adenosine was responsible for the amelioration of cytokine-induced hyperpermeability by NAD^+ was considered. To investigate this idea, Caco-2 monolayers were exposed to cytomix in the absence or presence of 10 μmol/L adenosine (FIG. 1A).

The subject of a further test is mouse ileal mucosa. In words: Ileal mucosal permeability to FD4 (ex vivo everted gut sac) in LPS-injected mice. Conditions: LPS 17 mg/kg IP, two 132 mg/kg doses (IV then IP 12 h later), ileum at 18 h. The method, then: Animals. This research complied with regulations regarding animal care as published by the National Institutes of Health and was approved by the Institutional Animal Use and Care Committee of the University of Pittsburgh. Male 7-8 week old C57Bl/6J mice weighing 20-25 g were from Jackson Laboratories (Bar Harbor, Me.). To induce a systemic inflammatory response, mice were injected intraperitoneally (IP) with Escherichia coli (strain O111:B4) LPS (17 mg/kg) dissolved in 1.0 ml of PBS. Control animals were injected with a similar volume of PBS. Some mice were treated with an intravenous (IV) injection (100 μL) of either PBS or 132 mg/kg NAD^+ in PBS given 5 min before LPS or PBS injection, and this injection was repeated IP 12 h later. Groups of mice were anesthetized with 60-90 mg/kg sodium pentobarbital 18 h after the first injection with PBS or LPS. Segments of ileum were harvested to assess mucosal permeability to FD4 using an ex vivo everted gut sac method as previously described.^20
In the setting of systemic inflammation, circulating blood monocytes often encounter lipopolysaccharide (LPS), a potent inflammatory molecule derived from the outer surface of Gram-negative bacteria. […]

Test [2] relates to occludin and ZO-1 in Caco-2 cells. In words: ZO-1 and occludin in NP-40-insoluble fraction, immunoprecipitation and Western blot, Caco-2 cells exposed to cytomix. The test is classed as cell-based, human. (Immunoblotting shows a protein as a band on a membrane.)
For a further test, the system named is Caco-2 cells. In words: Immunofluorescence microscopy of ZO-1 and occludin localization in Caco-2 cells exposed to cytomix. Conditions: cytomix 48 h, 10 μmol/L added at 0 and 24 h. Type of test: cell-based, human. The protocol: Immunofluorescence. All procedures were performed at 0-4° C. as described.^9 Caco-2 cells growing on 24 well clear Transwell inserts were fixed and stained with a mouse anti-ZO-1 monoclonal antibody (mAb; BD Translabs, Franklin Lakes, N.J.) and rabbit an anti-occludin polyclonal antibody diluted 1:100. The secondary antibodies were 5 μg/mL FITC-conjugated affinity-purified donkey anti-mouse IgG and 15 μg/mL TRITC-conjugated affinity-purified goat anti-rabbit IgG (Jackson ImmunoResearch Laboratories).
Immunofluorescence microscopy was used to assess the structure of TJs in Caco-2 cells grown on Transwells. The cells were either left untreated (FIG. 3; Panel CON) or exposed to cytomix for 48 h in the absence (Panel C48) or presence (Panel N10) of extracellular NAD^+ (10 μmol/L added at 0 and 24 h). The cells were permeabilized, fixed, and stained using FITC- and TRITC-conjugated antibodies directed against ZO-1 and occludin, respectively. In control confluent Caco-2 monolayers, these proteins both were predominantly localized to regions near cell-cell boundaries. Staining was even and continuous. Following treatment with cytomix, dispersed lesions appeared throughout the monolayer, in which immunostaining for ZO-1 at cell boundaries became faint, diffuse, and discontinuous. Exposure to cytomix also was associated with “ruffling” of ZO-1 and occludin immunostaining. […]

Test [3] has as its system NO. production by Caco-2 cells. In words: NO. production (NO2- and NO3- in culture supernatants) by Caco-2 cells exposed to cytomix. Type of test: cell-based, human. The method, then:
(§1) Measurement of NO. production and iNOS gene expression. NO. production^21 was measured and RT-PCR ^22 for iNOS mRNA and 18S RNA were performed as described. The gels were captured using an imaging workstation (NucleoVision), and quantified with GelExpert™ 3.5. Relative expression of iNOS is reported after normalizing for 18S loading in FIG. 4B.
(§2) Accordingly, it was determined whether NAD^+ decreased the production of NO. (as assessed by measuring NO2^− and NO3^− in culture supernatants) by Caco-2 cells exposed to cytomix (similar study using RAW monocyte-like cells is not shown). […] Again, there was a biphasic response to NAD^+ treatment; provided maximal inhibition and higher doses inhibited less well. Thus, another inflammatory response, namely the induction of iNOS gene expression and the concomitant production of NO., is blocked by extracellular NAD^+ in both myeloid and epithelial cells.

Test [4] has as its system inducible nitric oxide synthase (iNOS) mRNA. In words: iNOS mRNA expression by RT-PCR in Caco-2 cells exposed to cytomix. The test is classed as cell-based, human. Conditions: biphasic response. The method, then:
as §1, §2

For test [5], the system named is NF-κB. In words: NF-κB DNA binding by electrophoretic mobility shift assay, Caco-2 cells exposed to cytomix. The test is classed as cell-based, human. The method, then: Electrophoretic mobility shift assay (EMSA). Nuclear extracts were prepared and analyzed as described.^23 However, 38.3 μL of 10% NP-40 was used to lyse the cells, the nuclei were isolated by centrifugation at 310 g for 3 min, and the nuclear pellets were resuspended in 80 μL of Buffer II.
iNOS induction is dependent, in part, on activation of the transcription factor NF-κB, a transcription factor that is required for a variety of monocyte inflammatory responses, e.g., to LPS. Therefore, we tested the ability of NAD^+ to inhibit DNA binding by NF-κB in Caco-2 cells exposed to cytomix. […] NAD^+ alone had no effect on the nuclear levels of NF-κB.
On the technique in general: In EMSA bound probe runs differently from free probe, usually more slowly.

The subject of test [6] is NF-κB. In words: Nuclear NF-κB levels by electrophoretic mobility shift assay, LPS-stimulated RAW 264.7 cells. Type of test: cell-based, mouse. Conditions: 10 ng/ml LPS, 15 min. The protocol:
Additional studies were performed to show the potent anti-inflammatory capacity of extracellular NAD^+. RAW 264.7 cells in tissue culture dishes were stimulated with LPS prepared from Escherichia coli strain 011:B4, and the activation of NF-κB was measured. Some cells were exposed to 10 ng/ml LPS in the presence of 1-100 μM NAD. Nuclear proteins were extracted from the cells 15 min after exposure to the compounds, and NF-κB levels were determined using the electrophoretic mobility shift assay.
Thus, very low doses of extracellular NAD^+ can effectively block the activation of NF-κB, an important transcription factor mobilized during an inflammatory response.

In a further test the test system is TNF-α. In words: LPS-induced TNF-α release from RAW cells, ELISA. The test is classed as cell-based, mouse. Conditions: 1 μM. The protocol: Whether NAD^+ could prevent the production of tumor necrosis factor α (TNF-α), a potent proinflammatory cytokine produced by activated monocytes and macrophages, was tested. Supernatants were collected from RAW cells treated with LPS in the absence or presence of NAD^+. TNF-α levels were quantitated by ELISA.
A general note: In an ELISA, binding on a coated surface is turned into a signal by an enzyme label.

The test system of test [7] is mice challenged with a lethal dose of Escherichia coli O111:B4 LPS. In words: LPS-induced mortality in mice. Type of test: in vivo. Conditions: LPS 17 mg/kg; intravenous and intraperitoneal, 1 mg/kg pre-treatment then 1 mg/kg every 6 h for five more doses.

Structures are written as SMILES.

On to `NC(=O)c1ccc[n+]([C@@H]2O[C@H](COP(=O)([O-])OP(=O)(O)OC[C@H]3O[C@@H](n4cnc5c(N)ncnc54)[C@H](O)[C@@H]3O)[C@@H](O)[C@H]2O)c1` [NAD^+, nicotinamide adenine dinucleotide], for which the “protection against cytomix-induced hyperpermeability” value in test [1] (10 and 100 μmol/L) is listed as “statistically significant”. Further, the cytomix-induced epithelial hyperpermeability entry in [1] (cytomix 24 or 48 h, graded concentrations, concentration-dependent) is listed as “ameliorated”. In addition, in test [1] (monolayers incubated with NAD+ alone, no cytomix), the “Epithelial permeability (FD4 flux)” value is recorded as “unaffected”. Besides, in the test with mouse ileal mucosa, the “increase in mucosal permeability to FD4 induced by LPS” value is given as “significantly ameliorated”. For the same molecule, in [2] (cytomix 48 h with 10 or 100 μmol/L), the “occludin and ZO-1 in NP-40-insoluble complexes” value is “normal levels of these proteins were present”. Further, the “staining of ZO-1 and occludin at cell-cell boundaries” value in the test with Caco-2 cells is “continuous staining”. The “concentration giving maximal inhibition of NO. production” value in [3] (cytomix) amounted to 100 µmol/L. Further, the “inhibition of NO. production” value in test [3] (cytomix, 1000 μmol/L compared with 100 μmol/L) is “inhibition was decreased”. The “cytomix-increased production of NO.” value in test [3] (graded concentrations) is recorded as “inhibited in a concentration-dependent manner”. In [4], the “cytomix-increased expression of iNOS mRNA” value is recorded as “blocked this effect”. The “cytomix-induced NF-κB activation” value with NF-κB [5] (1 μmol/L, nuclear extracts 4 h) is on record as “no effect”. The “nuclear levels of NF-κB” value in the test with NF-κB [5] (NAD+ alone, no cytomix) is “no effect”. Besides, the “NF-κB DNA binding” value in the test with NF-κB [5] (cytomix, 10 or 100 μmol/L, nuclear extracts 4 h) was “clearly decreased”. Further, in the test with NF-κB [6] (1 μM), the “nuclear localization of NF-κB” value is on record as “dramatically decreased”. Also, the “nuclear NF-κB levels” value in the test on NF-κB [6] (100 μM) is “near baseline levels”. In addition, the “LPS-induced release of TNF-α” value in the test with TNF-α is reported as “partially blocked”. Moreover, the mortality entry in test [7] is listed as “completely prevented mortality”.
For `Nc1ncnc2c1ncn2[C@@H]1O[C@H](CO)[C@@H](O)[C@H]1O` [Adenosine, adenosine, reference compound], in [1] (10 μmol/L), the “induction of hyperpermeability by cytomix” value is “no effect”. The “decrease in NP-40-insoluble occludin or ZO-1” value in test [2] (cytomix 48 h with 10 μM) is on record as “failed to prevent”.
Consider `Nc1ncnc2c1ncn2[C@@H]1O[C@H](COP(=O)(O)OP(=O)(O)OC[C@H]2OC(O)[C@H](O)[C@@H]2O)[C@@H](O)[C@H]1O` (some centres unmarked) [ADP-ribose], for which the expression of occludin result in test [2] (cytomix, co-incubation with 10 or 100 μmol/L) was “failed to preserve occludin expression”.
